Measured values: ChEMBL document CHEMBL5154826, “Discovery of the Clinical Candidate MAK683: An EED-Directed, Allosteric, and Selective PRC2 Inhibitor for the Treatment of Advanced Malignancies” (J Med Chem, 2022)
In brackets after ≈: the same amount, converted by molar mass.

Columns and labels:
[1] = target: T1, Alpha-2C adrenergic receptor (Homo sapiens, UniProt P18825); experiment: Inhibition of alpha2c adrenergic receptor (unknown origin)
T1 sequence (P18825 whole entry): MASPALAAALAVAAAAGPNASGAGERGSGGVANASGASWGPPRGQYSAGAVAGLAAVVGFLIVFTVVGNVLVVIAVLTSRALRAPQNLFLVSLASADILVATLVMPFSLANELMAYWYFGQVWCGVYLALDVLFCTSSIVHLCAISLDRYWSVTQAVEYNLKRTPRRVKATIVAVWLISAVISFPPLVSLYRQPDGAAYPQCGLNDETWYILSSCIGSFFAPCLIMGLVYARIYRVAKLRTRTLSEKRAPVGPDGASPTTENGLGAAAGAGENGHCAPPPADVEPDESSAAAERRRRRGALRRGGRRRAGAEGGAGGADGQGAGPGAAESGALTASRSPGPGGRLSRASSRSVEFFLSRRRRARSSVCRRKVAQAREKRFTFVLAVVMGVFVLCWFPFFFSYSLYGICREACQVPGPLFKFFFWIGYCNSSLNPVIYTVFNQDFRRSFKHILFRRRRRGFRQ

[2] = Free plasma concentration in Athymic BALB/c nude mouse xenografted with human Karpas-422 cells at 20 mg/kg, po after 12 hrs by HPLC-MS/MS analysis; assay type: ADME, organism-based; details: in vivo
[3] = Intrinsic clearance in human hepatocytes measured per 10^6 cells; assay type: ADME, cell-based, Hepatocyte; details: read-out: CLH
KARPAS-422 = experiment: Antiproliferative activity against human KARPAS-422 cells expressing EZH2 mutant assessed as inhibition of cell growth after 14 days by beckman coulter counting method; assay type: functional; details: time 14 day
[4] = Lipophilicity, logD of the compound at pH 7.4 by LC with tandem MS analysis; assay type: physicochemical; details: buffer, read-out: logD
[5] = Dissociation constant, pKa of compound; assay type: physicochemical
[6] = Permeability across apical to basolateral side in human Caco-2 cells at 10 uM incubated for 2 hrs by LC/MS/MS analysis; assay type: ADME, cell-based; details: Caco-2, read-out: permeability
[7] = Oral bioavailability in Sprague-Dawley rat at 2 mg/kg; assay type: ADME, organism-based; details: in vivo
Cytochrome P450 3A4 = Cytochrome P450 3A4 (Homo sapiens, UniProt P08684); experiment: Inhibition of CYP3A4 in human liver microsomes using midazolam as substrate incubated for 10 mins in presence of NADPH by LC-MS/MS analysis; assay type: ADME, Microsome
Cytochrome P450 2C9 = Cytochrome P450 2C9 (Homo sapiens, UniProt P11712); experiment: Inhibition of CYP2C9 in human liver microsomes using diclofenac as substrate incubated for 10 mins in presence of NADPH by LC-MS/MS analysis; assay type: ADME, Microsome
Cytochrome P450 2D6 = Cytochrome P450 2D6 (Homo sapiens, UniProt P10635); experiment: Inhibition of CYP2D6 in human liver microsomes using bufuralol as substrate incubated for 10 mins in presence of NADPH by LC-MS/MS analysis; assay type: ADME, Microsome
[8] = High throughput solubility of the compound at pH 1 after 16 to 24 hrs by MS/MS analysis; assay type: physicochemical; details: buffer, time 16-24 hrs
[9] = High throughput solubility of the compound at pH 7 after 16 to 24 hrs by MS/MS analysis; assay type: physicochemical; details: buffer, time 16-24 hrs, read-out: solubility
[10] = High throughput solubility of the compound in SGF after 16 to 24 hrs by MS/MS analysis; assay type: physicochemical; details: time 16-24 hrs
[11] = High throughput solubility of the compound in FaSSIF after 16 to 24 hrs by MS/MS analysis; assay type: physicochemical; details: time 16-24 hrs
[12] = High throughput solubility of the compound in FeSSIF after 16 to 24 hrs by MS/MS analysis; assay type: physicochemical; details: time 16-24 hrs
[13] = Permeability across basolateral to apical side in human Caco-2 cells incubated for 2 hrs by LC/MS/MS analysis; assay type: ADME, cell-based; details: read-out: permeability
[14] = Antitumor activity against human Karpas-422 cells xenografted Athymic BALB/c nude mouse assessed as minimum effective dose administered twice a day for 30 days; assay type: functional; details: KARPAS-422, 720 h, time 30 day, read-out: MED
[15] = Oral biovailability in ICR (CD-1) mouse at 2 mg/kg, po; assay type: ADME, organism-based; details: in vivo
[16] = Oral biovailability in Beagle dog at 2 mg/kg, po; assay type: ADME, organism-based, Canis lupus familiaris; details: in vivo
[17] = Volume of distribution at steady state ICR (CD-1) mouse at 2 mg/kg, po or 1 mg/kg, iv after 1 week by LC-MS/MS analysis; assay type: ADME, organism-based; details: in vivo, 168 h, time 1 weeks
[18] = Volume of distribution at steady state in Sprague-Dawley rat at 2 mg/kg, po or 1 mg/kg, iv after 1 week by LC-MS/MS analysis; assay type: ADME, organism-based; details: in vivo, 168 h, time 1 weeks
[19] = Volume of distribution at steady state in wild type Beagle dog at 2 mg/kg, po or 1 mg/kg, iv after 1 week by LC-MS/MS analysis; assay type: ADME, organism-based, Canis lupus familiaris; details: in vivo, 168 h, time 1 weeks
[20] = Terminal half life in ICR (CD-1) mouse at 2 mg/kg, po or 1 mg/kg, iv after 1 week by LC-MS/MS analysis; assay type: ADME, organism-based; details: in vivo, time 1 weeks, read-out: beta t1/2 (converted)
[21] = Terminal half life in Sprague-Dawley rat at 2 mg/kg, po or 1 mg/kg, iv after 1 week by LC-MS/MS analysis; assay type: ADME, organism-based; details: in vivo, time 1 weeks, read-out: beta t1/2 (converted)
[22] = Terminal half life in wild type Beagle dog at 2 mg/kg, po or 1 mg/kg, iv after 1 week by LC-MS/MS analysis; assay type: ADME, organism-based, Canis lupus familiaris; details: in vivo, time 1 weeks, read-out: beta t1/2 (converted)
[23] = Dose normalized AUC in ICR (CD-1) mouse at 2 mg/kg, po or 1 mg/kg, iv after 1 week by LC-MS/MS analysis; assay type: ADME, organism-based; details: in vivo, 168 h, time 1 weeks
[24] = Dose normalized AUC in Sprague-Dawley rat at 2 mg/kg, po or 1 mg/kg, iv after 1 week by LC-MS/MS analysis; assay type: ADME, organism-based; details: in vivo, 168 h, time 1 weeks
[25] = Dose normalized AUC in wild type Beagle dog at 2 mg/kg, po or 1 mg/kg, iv after 1 week by LC-MS/MS analysis; assay type: ADME, organism-based, Canis lupus familiaris; details: in vivo, 168 h, time 1 weeks
[26] = Dose normalized Cmax in ICR (CD-1) mouse at 2 mg/kg, po or 1 mg/kg, iv after 1 week by LC-MS/MS analysis; assay type: ADME, organism-based; details: in vivo, 168 h, time 1 weeks
[27] = Dose normalized Cmax in Sprague-Dawley rat at 2 mg/kg, po or 1 mg/kg, iv after 1 week by LC-MS/MS analysis; assay type: ADME, organism-based; details: in vivo, 168 h, time 1 weeks
[28] = Dose normalized Cmax in wild type Beagle dog at 2 mg/kg, po or 1 mg/kg, iv after 1 week by LC-MS/MS analysis; assay type: ADME, organism-based, Canis lupus familiaris; details: in vivo, 168 h, time 1 weeks
[29] = Metabolic stability in mouse microsomes assessed as intrinsic clearance; assay type: ADME, Microsome; details: read-out: CLH
[30] = Metabolic stability in rat microsomes assessed as intrinsic clearance; assay type: ADME, Microsome; details: read-out: CLH
[31] = Metabolic stability in dog microsomes assessed as intrinsic clearance; assay type: ADME, Canis lupus familiaris, Microsome; details: read-out: CLH
[32] = Metabolic stability in human microsomes assessed as intrinsic clearance; assay type: ADME, Microsome; details: read-out: CLH
[33] = Intrinsic clearance in mouse hepatocytes measured per 10^6 cells; assay type: ADME, cell-based, Hepatocyte; details: read-out: CLH
[34] = Intrinsic clearance in rat hepatocytes measured per 10^6 cells; assay type: ADME, cell-based, Hepatocyte; details: read-out: CLH
[35] = Intrinsic clearance in dog hepatocytes measured per 10^6 cells; assay type: ADME, cell-based, Canis lupus familiaris, Hepatocyte; details: read-out: CLH
[36] = Plasma clearance in rat; assay type: ADME, cell-free
[37] = Plasma clearance in dog; assay type: ADME, cell-free, Canis lupus familiaris
[38] = Plasma protein binding in mouse at 1 uM measured after 6 hrs LC-MS/MS analysis; assay type: ADME, cell-free; details: read-out: PPB (converted)
[39] = Plasma protein binding in rat at 1 uM measured after 6 hrs LC-MS/MS analysis; assay type: ADME, cell-free; details: read-out: PPB (converted)
[40] = Plasma protein binding in dog at 1 uM measured after 6 hrs LC-MS/MS analysis; assay type: ADME, cell-free, Canis lupus familiaris; details: read-out: PPB (converted)
[41] = Plasma protein binding in human at 1 uM measured after 6 hrs LC-MS/MS analysis; assay type: ADME, cell-free; details: read-out: PPB (converted)
[42] = Plasma protein binding in human assessed as unbound fraction at 1 uM measured after 6 hrs LC-MS/MS analysis; assay type: ADME, cell-free

Sequence of Cytochrome P450 3A4 (P08684 whole entry): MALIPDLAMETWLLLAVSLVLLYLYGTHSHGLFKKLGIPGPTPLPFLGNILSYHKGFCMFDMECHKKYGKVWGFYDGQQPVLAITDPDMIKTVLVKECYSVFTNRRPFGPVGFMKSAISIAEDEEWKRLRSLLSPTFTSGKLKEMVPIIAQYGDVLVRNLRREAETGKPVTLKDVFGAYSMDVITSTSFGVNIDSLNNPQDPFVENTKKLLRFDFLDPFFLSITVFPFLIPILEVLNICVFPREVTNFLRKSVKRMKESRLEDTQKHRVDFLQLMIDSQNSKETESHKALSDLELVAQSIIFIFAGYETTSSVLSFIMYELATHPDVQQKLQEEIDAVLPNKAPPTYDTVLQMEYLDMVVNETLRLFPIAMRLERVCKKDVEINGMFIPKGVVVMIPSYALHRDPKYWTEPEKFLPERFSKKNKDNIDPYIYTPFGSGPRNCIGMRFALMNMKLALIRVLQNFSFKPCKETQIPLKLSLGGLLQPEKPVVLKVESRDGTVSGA
Sequence of Cytochrome P450 2C9 (P11712 whole entry): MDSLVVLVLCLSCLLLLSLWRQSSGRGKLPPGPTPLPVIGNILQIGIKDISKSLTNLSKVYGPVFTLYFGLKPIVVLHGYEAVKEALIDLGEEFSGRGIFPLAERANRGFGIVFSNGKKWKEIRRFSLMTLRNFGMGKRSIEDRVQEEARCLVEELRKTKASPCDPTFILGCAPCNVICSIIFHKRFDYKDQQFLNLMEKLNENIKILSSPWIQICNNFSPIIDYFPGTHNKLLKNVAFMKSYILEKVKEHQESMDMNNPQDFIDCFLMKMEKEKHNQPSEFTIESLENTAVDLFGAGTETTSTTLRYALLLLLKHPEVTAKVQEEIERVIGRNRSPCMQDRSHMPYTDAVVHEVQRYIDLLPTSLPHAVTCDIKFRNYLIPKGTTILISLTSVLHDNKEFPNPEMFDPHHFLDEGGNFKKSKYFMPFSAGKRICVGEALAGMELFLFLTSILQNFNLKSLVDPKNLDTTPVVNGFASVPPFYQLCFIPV
Sequence of Cytochrome P450 2D6 (P10635 whole entry): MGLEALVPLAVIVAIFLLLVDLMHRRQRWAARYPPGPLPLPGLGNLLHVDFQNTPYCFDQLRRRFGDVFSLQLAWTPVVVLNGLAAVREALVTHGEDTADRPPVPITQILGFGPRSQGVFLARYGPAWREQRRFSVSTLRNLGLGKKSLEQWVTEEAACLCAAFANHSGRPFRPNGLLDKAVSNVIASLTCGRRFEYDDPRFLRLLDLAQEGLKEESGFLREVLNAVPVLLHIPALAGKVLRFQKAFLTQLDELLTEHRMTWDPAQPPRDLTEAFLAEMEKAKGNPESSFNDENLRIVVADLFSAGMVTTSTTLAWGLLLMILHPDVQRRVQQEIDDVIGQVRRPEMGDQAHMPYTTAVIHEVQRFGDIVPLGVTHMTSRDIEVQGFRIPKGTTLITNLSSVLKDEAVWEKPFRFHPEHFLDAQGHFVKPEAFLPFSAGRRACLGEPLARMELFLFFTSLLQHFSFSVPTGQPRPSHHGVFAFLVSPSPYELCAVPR

SMILES: COc1cccc(F)c1CNc1ccc(-c2cnc(C)nc2C)c2nncn12
- IC50 [1]: 8.7 µM
- Cp(f) [2]: 32 nM
- hepatocyte CLint [3]: < 2.3 µL/min/1e6 cells
- GI50 (KARPAS-422; Homo sapiens, KARPAS-422, 336 h): 6.7 µM
- GI90 (KARPAS-422): 32 µM
- logD [4]: 3.8
- pKa [5]: 3.3
- Papp A→B at 2 h, 10 µM [6]: 7.2 ×10⁻⁶ cm/s
- bioavailability [7]: 109%
- IC50 (Cytochrome P450 3A4): > 20 µM
- IC50 (Cytochrome P450 2C9): > 20 µM
- IC50 (Cytochrome P450 2D6): > 20 µM
- solubility [8]: > 13000 µM
- solubility [9]: 2.6 µM (≈ 0.984 µg/mL)
- solubility [10]: 173 µM (≈ 65.5 µg/mL)
- solubility [11]: 34 µM (≈ 12.9 µg/mL)
- solubility [12]: 86 µM (≈ 32.5 µg/mL)
- Papp B→A at 2 h [13]: 42 ×10⁻⁶ cm/s
- minimal effective dose [14]: 7 mg/kg
- bioavailability [15]: 132%
- bioavailability [16]: 68%
- Vdss [17]: 7.5 L/kg
- Vdss [18]: 2.4 L/kg
- Vdss [19]: 2.1 L/kg
- half-life [20]: 2.2 h
- half-life [21]: 1.1 h
- half-life [22]: 2 h
- AUC/dose [23]: 1032 nM·h
- AUC/dose [24]: 2127 nM·h
- AUC/dose [25]: 2392 nM·h
- Cmax/dose [26]: 288 nM
- Cmax/dose [27]: 387 nM
- Cmax/dose [28]: 590 nM
- microsomal CLint [29]: 21 µL/min/mg
- microsomal CLint [30]: 11 µL/min/mg
- microsomal CLint [31]: 10 µL/min/mg
- microsomal CLint [32]: 9 µL/min/mg
- hepatocyte CLint [33]: 3.6 µL/min/1e6 cells
- hepatocyte CLint [34]: 3.2 µL/min/1e6 cells
- hepatocyte CLint [35]: < 2.3 µL/min/1e6 cells
- clearance [36]: 22 mL/min/kg
- clearance [37]: 13 mL/min/kg
- fraction unbound at 6 h, 1 µM [38]: 0.12
- fraction unbound at 6 h, 1 µM [39]: 0.1
- fraction unbound at 6 h, 1 µM [40]: 0.15
- fraction unbound at 6 h, 1 µM [41]: 0.13
- fraction unbound at 6 h, 1 µM [42]: 0.13
